Literature values in patent US20090214648A1 (priority 2008, published 2009).

How the values were obtained:
[1] = in vivo

**Q.** What does the source list for `CC(C)Cc1ccc(C(C)C(=O)O)cc1` (stereo not shown) [Ibuprofen, 2-[4-(2-methylpropyl)phenyl]propanoic acid]?
**A.** Dose excreted in the urine [1]: more than 90%; Dose excreted unchanged [1]: Less than 10%; Time until excretion is essentially complete [1]: ≤ 24 h; Inhibition of cyclooxygenase (enzyme cyclooxygenase): potent inhibitor
